Literature values in US20050008633A1, “Chemical and physical modulators of bioavailability of inhaled compositions” (Advanced Inhalation Research Inc., priority 2003, published 2005).

Assays:
[1] = intratracheal instillation in animals, absorption over many hours
[2] = tested on: rat alveolar epithelial cell monolayers; details: rat pneumocyte monolayers

Substance	bioavailability [1]	Jmax (i.e., maximum flux) ([2]; net absorption of intact F-Alb)	Kt (i.e., K(1)) of net absorption of intact F-Alb ([2]; simple saturable process)
immunoglobulin G	lower than 5%	–	–
F-Alb: fluorescein isothiocyanate (FITC)-labeled bovine serum albumin	–	~0.15 fmol.cm^−2.s^−1	~1.6 µM
